The nature of the data set: MALDI-TOF screening of Ni^2+ dependent hydrolysis in a combinatorial peptide library. It counts as physicochemical. The settings on record: CH3CO-Gly-Ala-Thr-X-His-Z-Lys-Phe-Leu-NH2 library, Ni^2+ 2 mM, pH 8.2, 10 mM Tris, score=24/tm. The method in brief:
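Ni2+ 2 mM, peptide pool 1 mM (total), 10 mM Tris pH 8.2; 37 °C and 45 °C in parallel; MS aliquots at 2/4/6/8 h; products detected visually. X: all proteinogenic residues except Asp, Glu, Cys; Z: all except Cys.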

With Ac-GATNHDKFL-NH2 [TNHD], the “hydrolysis score from MALDI-TOF screening” value (“hydrolysis score” for short) (37° C.) was 0 (a score of 0 if no trace of the product of hydrolysis was seen after 8 hours of incubation) and the “hydrolysis score” value (45° C.) is on record as 0 (a score of 0 if no trace of the product of hydrolysis was seen after 8 hours of incubation).
As for Ac-GATNHEKFL-NH2 [TNHE], the “hydrolysis score” value (37° C.) was 0 (a score of 0 if no trace of the product of hydrolysis was seen after 8 hours of incubation) and the “hydrolysis score” value (45° C.) is 0 (a score of 0 if no trace of the product of hydrolysis was seen after 8 hours of incubation).
Regarding Ac-GATNHFKFL-NH2 [TNHF], the “hydrolysis score” value reads like this: (37° C.) 0 (a score of 0 if no trace of the product of hydrolysis was seen after 8 hours of incubation); (45° C.) 0 (a score of 0 if no trace of the product of hydrolysis was seen after 8 hours of incubation).
With Ac-GATNHGKFL-NH2 [TNHG], the “hydrolysis score” value by setting is: (37° C.) 0 (a score of 0 if no trace of the product of hydrolysis was seen after 8 hours of incubation); (45° C.) 0 (a score of 0 if no trace of the product of hydrolysis was seen after 8 hours of incubation).
Ac-GATNHHKFL-NH2 [TNHH]: the “hydrolysis score” value was 0 (a score of 0 if no trace of the product of hydrolysis was seen after 8 hours of incubation) (37° C.) and 0 (a score of 0 if no trace of the product of hydrolysis was seen after 8 hours of incubation) (45° C.).
Turning to Ac-GATNHIKFL-NH2 [TNHI], the “hydrolysis score” value is recorded as 0 (a score of 0 if no trace of the product of hydrolysis was seen after 8 hours of incubation) (37° C.) and 0 (a score of 0 if no trace of the product of hydrolysis was seen after 8 hours of incubation) (45° C.).
Regarding Ac-GATNHKKFL-NH2 [TNHK], the “hydrolysis score” value is on record as 0 (a score of 0 if no trace of the product of hydrolysis was seen after 8 hours of incubation) (37° C.) and 0 (a score of 0 if no trace of the product of hydrolysis was seen after 8 hours of incubation) (45° C.).
For the substance Ac-GATNHLKFL-NH2 [TNHL], the “hydrolysis score” value runs as follows: (37° C.) 0 (a score of 0 if no trace of the product of hydrolysis was seen after 8 hours of incubation); (45° C.) 0 (a score of 0 if no trace of the product of hydrolysis was seen after 8 hours of incubation).
Consider Ac-GATNHNKFL-NH2 [TNHN], for which the “hydrolysis score” value (37° C.) is 0 (a score of 0 if no trace of the product of hydrolysis was seen after 8 hours of incubation) and the “hydrolysis score” value (45° C.) is 0 (a score of 0 if no trace of the product of hydrolysis was seen after 8 hours of incubation).
Consider Ac-GATNHPKFL-NH2 [TNHP], for which the “hydrolysis score” value is, setting by setting: (37° C.) 0 (a score of 0 if no trace of the product of hydrolysis was seen after 8 hours of incubation); (45° C.) 0 (a score of 0 if no trace of the product of hydrolysis was seen after 8 hours of incubation).
In the case of Ac-GATNHQKFL-NH2 [TNHQ], the “hydrolysis score” value runs as follows: (37° C.) 0 (a score of 0 if no trace of the product of hydrolysis was seen after 8 hours of incubation); (45° C.) 0 (a score of 0 if no trace of the product of hydrolysis was seen after 8 hours of incubation).
Consider Ac-GATNHRKFL-NH2 [TNHR], for which the “hydrolysis score” value runs as follows: (37° C.) 0 (a score of 0 if no trace of the product of hydrolysis was seen after 8 hours of incubation); (45° C.) 3 (a score of 3 for detection at 8 hours).
As for Ac-GATNHSKFL-NH2 [TNHS], the “hydrolysis score” value runs as follows: (37° C.) 0 (a score of 0 if no trace of the product of hydrolysis was seen after 8 hours of incubation); (45° C.) 0 (a score of 0 if no trace of the product of hydrolysis was seen after 8 hours of incubation).
Take Ac-GATNHTKFL-NH2 [TNHT]: the “hydrolysis score” value is listed as 0 (a score of 0 if no trace of the product of hydrolysis was seen after 8 hours of incubation) (37° C.) and 0 (a score of 0 if no trace of the product of hydrolysis was seen after 8 hours of incubation) (45° C.).
For Ac-GATNHVKFL-NH2 [TNHV], the “hydrolysis score” value is, setting by setting: (37° C.) 0 (a score of 0 if no trace of the product of hydrolysis was seen after 8 hours of incubation); (45° C.) 0 (a score of 0 if no trace of the product of hydrolysis was seen after 8 hours of incubation).
As to Ac-GATNHWKFL-NH2 [TNHW], the “hydrolysis score” value by setting is: (37° C.) 0 (a score of 0 if no trace of the product of hydrolysis was seen after 8 hours of incubation); (45° C.) 3 (a score of 3 for detection at 8 hours).
For Ac-GATNHYKFL-NH2 [TNHY], in that order: 0 (a score of 0 if no trace of the product of hydrolysis was seen after 8 hours of incubation) and 0 (a score of 0 if no trace of the product of hydrolysis was seen after 8 hours of incubation).
With Ac-GATPHAKFL-NH2 [TPHA], the “hydrolysis score” value (45° C.) is 0 (a score of 0 if no trace of the product of hydrolysis was seen after 8 hours of incubation).
The same measure, in the same setting: the result for Ac-GATPHDKFL-NH2 [TPHD] reads 0 (a score of 0 if no trace of the product of hydrolysis was seen after 8 hours of incubation); that for Ac-GATPHEKFL-NH2 [TPHE], 0 (a score of 0 if no trace of the product of hydrolysis was seen after 8 hours of incubation).
The same measure, in the same setting: under Ac-GATPHFKFL-NH2 [TPHF] stands 0 (a score of 0 if no trace of the product of hydrolysis was seen after 8 hours of incubation); under Ac-GATPHGKFL-NH2 [TPHG], 0 (a score of 0 if no trace of the product of hydrolysis was seen after 8 hours of incubation); under Ac-GATPHHKFL-NH2 [TPHH], 0 (a score of 0 if no trace of the product of hydrolysis was seen after 8 hours of incubation).
Same read-out and setting: under Ac-GATPHIKFL-NH2 [TPHI] stands 0 (a score of 0 if no trace of the product of hydrolysis was seen after 8 hours of incubation).
Turning to Ac-GATPHKKFL-NH2 [TPHK], where the note is “45° C.”, the “hydrolysis score” value is 0 (a score of 0 if no trace of the product of hydrolysis was seen after 8 hours of incubation).
For the substance Ac-GATPHLKFL-NH2 [TPHL], the “hydrolysis score” value (45° C.) is on record as 0 (a score of 0 if no trace of the product of hydrolysis was seen after 8 hours of incubation).
Still for that read-out and setting: the result for Ac-GATPHNKFL-NH2 [TPHN] reads 0 (a score of 0 if no trace of the product of hydrolysis was seen after 8 hours of incubation).
Still for that read-out and setting: the result for Ac-GATPHPKFL-NH2 [TPHP] reads 0 (a score of 0 if no trace of the product of hydrolysis was seen after 8 hours of incubation).
Take Ac-GATPHQKFL-NH2 [TPHQ]: the “hydrolysis score” value (45° C.) is on record as 0 (a score of 0 if no trace of the product of hydrolysis was seen after 8 hours of incubation).
Consider Ac-GATPHRKFL-NH2 [TPHR], for which the “hydrolysis score” value (45° C.) was 0 (a score of 0 if no trace of the product of hydrolysis was seen after 8 hours of incubation).
Regarding Ac-GATPHSKFL-NH2 [TPHS], the “hydrolysis score” value (45° C.) is reported as 0 (a score of 0 if no trace of the product of hydrolysis was seen after 8 hours of incubation).
Same read-out and setting: under Ac-GATPHTKFL-NH2 [TPHT] stands 0 (a score of 0 if no trace of the product of hydrolysis was seen after 8 hours of incubation).

These data come from patent US8969516B2, “Method of hydrolysis of peptide bond” (priority 2006, dated 2015).
